Experimental data taken from patent publication US5861476A, “Peptides and compounds that bind to the IL-1 receptor” (Affymax Technologies N.V., priority 1995, dated 1999).
pIC50: −log10 of the molar value. Where a SMILES comes first, the peptide text is derived from it. [ ]: non-standard residue; d: D form. Bpa = N[C@@H](Cc1ccc(C(=O)c2ccccc2)cc1)C(=O)O; Aze = O=C(O)[C@@H]1CCN1; Aib = CC(C)(N)C(=O)O

These compounds were tested against T1, IL-1RtI (Homo sapiens, UniProt P14778) (assay: Inhibition of 125I-IL-1α binding to IL-1RtI (Example 3)). Details: inhibition of 125I-IL-1α binding to IL-1RtI; soluble peptide unless marked *.
T1 construct: made in house; host or cells: recombinant host cells (one form soluble from baculovirus transformed host cells; another PIG-tailed and cleaved from the cell surface)
T1 sequence (P14778 18-336): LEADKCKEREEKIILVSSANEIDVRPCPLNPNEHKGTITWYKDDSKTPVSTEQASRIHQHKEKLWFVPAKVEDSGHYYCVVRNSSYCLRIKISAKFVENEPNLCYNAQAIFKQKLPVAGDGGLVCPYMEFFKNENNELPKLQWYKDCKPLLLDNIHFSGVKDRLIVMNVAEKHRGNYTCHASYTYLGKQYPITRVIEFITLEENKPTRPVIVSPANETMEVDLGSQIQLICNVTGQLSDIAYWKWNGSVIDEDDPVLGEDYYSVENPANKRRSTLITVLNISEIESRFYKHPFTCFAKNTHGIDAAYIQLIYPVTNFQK
Protocol: This example provides the results of experiments conducted to determine an approximate IC50 for certain peptides of the invention. IC50 as used herein refers to the concentration of a compound which will inhibit 50% of the binding between a receptor and its ligand, e.g. IL-1RtI and IL-1. Stock solutions of each peptide were prepared. The appropriate amount of the peptide was dissolved in DMSO, and then nineteen volumes of binding buffer (RPMI 1640, 1% BSA, 20 mM HEPES, pH 7.2-7.3, and 0.1% sodium azide) were added to yield a 1 mM peptide, 5% DMSO stock solution.
One assay utilized a truncated IL-1RtI which had been immobilized on 96-well plates with an appropriate antibody, typically a non-blocking high affinity antibody. In other assays, cells expressing "full-length" IL-1RtI were used with results that yielded IC50 values about 5 to 10 fold lower than those determined using the truncated receptor. The cells were seeded onto Falcon 3072 96-well plates at about 10^5 cells per well, and the plates were incubated overnight at 37° C. in media containing serum. The following morning, the cells were checked to ensure that the cells were confluent and adhered to the bottom of the wells.
According to either assay protocol, the plates were then washed three times with binding buffer, and then 50 μl of binding buffer and 25 μl of a peptide solution (either the stock solution or a dilution thereof; each stock was subjected to five three fold dilutions) were added to each well. Then 25 μl of binding buffer containing ^125 I-IL-1α (final concentration of 90 pM) were added to each well to begin the assay. Each assay was carried out in duplicate. The plates were then incubated for two hours at 4° C. For peptides having particularly high affinities, the assay was run in 24 well plates allowing for higher levels of ligand (possible total volume of 2.5 ml instead of 100 μl in the 96 well plate), thereby minimizing the potential for ligand depletion.
After the two hour incubation, the wells were rinsed three times with ice cold PBS (a semi-automated cell harvesting device was used to conduct the rinse). The receptors or cells were then detached from the plates by adding 100 μl of 0.1N NaOH to each well and incubating the plates at room temperature for 20 minutes. After the 20 minute incubation, about 75 μl of the suspension was counted on a gamma counter, and the IC50 for each peptide was determined using computer assistance and the results of the gamma counting.

SMILES	pIC50
C[C@H](NC(=O)[C@@H](N)Cc1ccccc1)C(=O)N[C@@H](Cc1c[nH]c2ccccc12)C(=O)N[C@H](C(=O)N1CCC[C@H]1C(=O)NCC(=O)N[C@@H](Cc1ccc(O)cc1)C(=O)N[C@@H](Cc1c[nH]c2ccccc12)C(=O)N[C@@H](CCC(N)=O)C(=O)N1CC[C@H]1C(=O)N[C@@H](Cc1ccc(O)cc1)C(N)=O)[C@@H](C)O [FAWTPGYWQJY--NH2] (H-FAWTPGYWQ[Aze]Y-NH2)	≥ 6.30
C[C@@H](O)[C@H](NC(=O)[C@H](Cc1ccc(C(=O)c2ccccc2)cc1)NC(=O)[C@H](CCC(=O)O)NC(=O)[C@@H](N)Cc1ccccc1)C(=O)N1CCC[C@H]1C(=O)NCC(=O)N[C@@H](Cc1ccc(O)cc1)C(=O)N[C@@H](Cc1ccc(O)cc1)C(=O)N[C@@H](CCC(N)=O)C(=O)N1CC[C@H]1C(=O)N[C@@H](Cc1ccc(O)cc1)C(N)=O [FE--Bpa--TPGYYQJY--NH2] (H-FE[Bpa]TPGYYQ[Aze]Y-NH2)	< 4.00
C[C@H](NC(=O)[C@H](CCC(=O)O)NC(=O)[C@@H](N)Cc1ccccc1)C(=O)N[C@H](C(=O)N1CCC[C@H]1C(=O)NCC(=O)N[C@@H](Cc1ccc(O)cc1)C(=O)N[C@@H](Cc1c[nH]c2ccccc12)C(=O)N[C@@H](CCC(N)=O)C(=O)N1CC[C@H]1C(=O)N[C@@H](Cc1ccc(O)cc1)C(N)=O)[C@@H](C)O [FEATPGYWQJY--NH2] (H-FEATPGYWQ[Aze]Y-NH2)	≥ 4.00
C[C@H](NC(=O)[C@H](Cc1c[nH]c2ccccc12)NC(=O)[C@H](CCC(=O)O)NC(=O)[C@@H](N)Cc1ccccc1)C(=O)N1CCC[C@H]1C(=O)NCC(=O)N[C@@H](Cc1ccc(O)cc1)C(=O)N[C@@H](Cc1c[nH]c2ccccc12)C(=O)N[C@@H](CCC(N)=O)C(=O)N1CC[C@H]1C(=O)N[C@@H](Cc1ccc(O)cc1)C(N)=O [FEWAPGYWQJY--NH2] (H-FEWAPGYWQ[Aze]Y-NH2)	≥ 6.30
C[C@H](NC(=O)[C@@H](NC(=O)[C@H](Cc1c[nH]c2ccccc12)NC(=O)[C@H](CCC(=O)O)NC(=O)[C@@H](N)Cc1ccccc1)[C@@H](C)O)C(=O)NCC(=O)N[C@@H](Cc1ccc(O)cc1)C(=O)N[C@@H](Cc1c[nH]c2ccccc12)C(=O)N[C@@H](CCC(N)=O)C(=O)N1CC[C@H]1C(=O)N[C@@H](Cc1ccc(O)cc1)C(N)=O [FEWTAGYWQJY--NH2] (H-FEWTAGYWQ[Aze]Y-NH2)	≥ 6.30
C[C@@H](O)[C@H](NC(=O)[C@H](Cc1c[nH]c2ccccc12)NC(=O)[C@H](CCC(=O)O)NC(=O)[C@@H](N)Cc1ccccc1)C(=O)NCC(=O)NCC(=O)N[C@@H](Cc1ccc(O)cc1)C(=O)N[C@@H](Cc1c[nH]c2ccccc12)C(=O)N[C@@H](CCC(N)=O)C(=O)N1CC[C@H]1C(=O)N[C@@H](Cc1ccc(O)cc1)C(N)=O [FEWTGGYWQJY--NH2] (H-FEWTGGYWQ[Aze]Y-NH2)	≥ 4.00
C[C@@H](O)[C@H](NC(=O)[C@H](Cc1c[nH]c2ccccc12)NC(=O)[C@H](CCC(=O)O)NC(=O)[C@@H](N)Cc1ccccc1)C(=O)N1CC[C@H]1C(=O)NCC(=O)N[C@@H](Cc1ccc(O)cc1)C(=O)N[C@@H](Cc1c[nH]c2ccccc12)C(=O)N[C@@H](CCC(N)=O)C(=O)N1CC[C@H]1C(=O)N[C@@H](Cc1ccc(O)cc1)C(N)=O [FEWTJGYWQJY--NH2] (H-FEWT[Aze]GYWQ[Aze]Y-NH2)	≥ 6.30
C[C@H](NC(=O)[C@@H]1CCCN1C(=O)[C@@H](NC(=O)[C@H](Cc1c[nH]c2ccccc12)NC(=O)[C@H](CCC(=O)O)NC(=O)[C@@H](N)Cc1ccccc1)[C@@H](C)O)C(=O)N[C@@H](Cc1ccc(O)cc1)C(=O)N[C@@H](Cc1c[nH]c2ccccc12)C(=O)N[C@@H](CCC(N)=O)C(=O)N1CC[C@H]1C(=O)N[C@@H](Cc1ccc(O)cc1)C(N)=O [FEWTPAYWQJY--NH2] (H-FEWTPAYWQ[Aze]Y-NH2)	≥ 6.30
C[C@@H](O)[C@H](NC(=O)[C@H](Cc1c[nH]c2ccccc12)NC(=O)[C@H](CCC(=O)O)NC(=O)[C@@H](N)Cc1ccccc1)C(=O)N1CCC[C@H]1C(=O)NC(C)(C)C(=O)N[C@@H](Cc1ccc(O)cc1)C(=O)N[C@@H](Cc1c[nH]c2ccccc12)C(=O)N[C@@H](CCC(N)=O)C(=O)N1CC[C@H]1C(=O)N[C@@H](Cc1ccc(O)cc1)C(N)=O [FEWTPAibYWQJY--NH2] (H-FEWTP[Aib]YWQ[Aze]Y-NH2)	≥ 6.30
C[C@@H](O)[C@H](NC(=O)[C@H](Cc1c[nH]c2ccccc12)NC(=O)[C@H](CCC(=O)O)NC(=O)[C@@H](N)Cc1ccccc1)C(=O)N1CCC[C@H]1C(=O)NCC(=O)N[C@@H](Cc1ccc(C(=O)c2ccccc2)cc1)C(=O)N[C@@H](Cc1ccc(O)cc1)C(=O)N[C@@H](CCC(N)=O)C(=O)N1CC[C@H]1C(=O)N[C@@H](Cc1ccc(O)cc1)C(N)=O [FEWTPG--Bpa--YQJY--NH2] (H-FEWTPG[Bpa]YQ[Aze]Y-NH2)	≥ 6.30
C[C@H](NC(=O)CNC(=O)[C@@H]1CCCN1C(=O)[C@@H](NC(=O)[C@H](Cc1c[nH]c2ccccc12)NC(=O)[C@H](CCC(=O)O)NC(=O)[C@@H](N)Cc1ccccc1)[C@@H](C)O)C(=O)N[C@@H](Cc1c[nH]c2ccccc12)C(=O)N[C@@H](CCC(N)=O)C(=O)N1CC[C@H]1C(=O)N[C@@H](Cc1ccc(O)cc1)C(N)=O [FEWTPGAWQJY--NH2] (H-FEWTPGAWQ[Aze]Y-NH2)	6.30
C[C@@H](O)[C@H](NC(=O)[C@H](Cc1c[nH]c2ccccc12)NC(=O)[C@H](CCC(=O)O)NC(=O)[C@@H](N)Cc1ccccc1)C(=O)N1CCC[C@H]1C(=O)NCC(=O)N[C@@H](Cc1c[nH]c2ccccc12)C(=O)N[C@@H](Cc1ccc(O)cc1)C(=O)N[C@@H](CCC(N)=O)C(=O)N1CC[C@H]1C(=O)N[C@@H](Cc1ccc(O)cc1)C(N)=O [FEWTPGWYQJY--NH2] (H-FEWTPGWYQ[Aze]Y-NH2)	≥ 6.30
C[C@@H](O)[C@H](NC(=O)[C@H](Cc1c[nH]c2ccccc12)NC(=O)[C@H](CCC(=O)O)NC(=O)[C@@H](N)Cc1ccccc1)C(=O)N1CCC[C@H]1C(=O)NCC(=O)N[C@@H](Cc1ccc(O)cc1)C(=O)N[C@@H](Cc1ccc(C(=O)c2ccccc2)cc1)C(=O)N[C@@H](CCC(N)=O)C(=O)N1CC[C@H]1C(=O)N[C@@H](Cc1ccc(O)cc1)C(N)=O [FEWTPGY--Bpa--QJY--NH2] (H-FEWTPGY[Bpa]Q[Aze]Y-NH2)	≥ 6.30
C[C@H](NC(=O)[C@H](Cc1ccc(O)cc1)NC(=O)CNC(=O)[C@@H]1CCCN1C(=O)[C@@H](NC(=O)[C@H](Cc1c[nH]c2ccccc12)NC(=O)[C@H](CCC(=O)O)NC(=O)[C@@H](N)Cc1ccccc1)[C@@H](C)O)C(=O)N[C@@H](CCC(N)=O)C(=O)N1CC[C@H]1C(=O)N[C@@H](Cc1ccc(O)cc1)C(N)=O [FEWTPGYAQJY--NH2] (H-FEWTPGYAQ[Aze]Y-NH2)	≥ 4.00
C[C@H](NC(=O)[C@H](Cc1c[nH]c2ccccc12)NC(=O)[C@H](Cc1ccc(O)cc1)NC(=O)CNC(=O)[C@@H]1CCCN1C(=O)[C@@H](NC(=O)[C@H](Cc1c[nH]c2ccccc12)NC(=O)[C@H](CCC(=O)O)NC(=O)[C@@H](N)Cc1ccccc1)[C@@H](C)O)C(=O)N1CC[C@H]1C(=O)N[C@@H](Cc1ccc(O)cc1)C(N)=O [FEWTPGYWAJY--NH2] (H-FEWTPGYWA[Aze]Y-NH2)	< 4.00
C[C@H](NC(=O)[C@@H]1CCN1C(=O)[C@H](CCC(N)=O)NC(=O)[C@H](Cc1c[nH]c2ccccc12)NC(=O)[C@H](Cc1ccc(O)cc1)NC(=O)CNC(=O)[C@@H]1CCCN1C(=O)[C@@H](NC(=O)[C@H](Cc1c[nH]c2ccccc12)NC(=O)[C@H](CCC(=O)O)NC(=O)[C@@H](N)Cc1ccccc1)[C@@H](C)O)C(N)=O [FEWTPGYWQJA--NH2] (H-FEWTPGYWQ[Aze]A-NH2)	≥ 4.00
